Values quoted from earlier work, collected in patent US20230228656A1, “Functionalized Blood Sampling Device and Method for PEth Measurement” (CAPITAINER AB, priority 2020, published 2023).

Tested on: PLD
Settings: literature assessment; considered unsuitable for clinical use; cited from earlier work

Structure (SMILES)	potency as PLD inhibitor
O=C(NCCN1CCC(n2c(=O)[nH]c3cc(Cl)ccc32)CC1)c1ccc(F)cc1 [halopemide]	low potency
O=C(NCCN1CCC(n2c(=O)[nH]c3ccccc32)CC1)c1cc2cc(F)ccc2[nH]1 [FIPI, 5-fluoro-2-indolyl-deschlorohalopemide]	low potency
